According to article PMC8800111 (The Journal of Biological Chemistry, 2021):

What was measured:
Assay type in all cases: cell-based
[1] = target: proteins of U3A human fibrosarcoma cells (4462 proteins detected) (Homo sapiens, UniProt O00422); conditions: protein SAP18; soluble abundance after heat, U3A cells
[2] = target: proteins of U3A human fibrosarcoma cells (4462 proteins detected) (Homo sapiens, UniProt O00567); conditions: protein NOP56; U3A cells
[3] = target: proteins of U3A human fibrosarcoma cells (4462 proteins detected) (Homo sapiens, UniProt O75400); conditions: protein PRPF40A; U3A cells
[4] = target: proteins of U3A human fibrosarcoma cells (4462 proteins detected) (Homo sapiens, UniProt O75449); conditions: protein KATNA1; U3A cells
Sequence of proteins of U3A human fibrosarcoma cells (4462 proteins detected) (Homo sapiens, UniProt O75449) (O75449 whole entry): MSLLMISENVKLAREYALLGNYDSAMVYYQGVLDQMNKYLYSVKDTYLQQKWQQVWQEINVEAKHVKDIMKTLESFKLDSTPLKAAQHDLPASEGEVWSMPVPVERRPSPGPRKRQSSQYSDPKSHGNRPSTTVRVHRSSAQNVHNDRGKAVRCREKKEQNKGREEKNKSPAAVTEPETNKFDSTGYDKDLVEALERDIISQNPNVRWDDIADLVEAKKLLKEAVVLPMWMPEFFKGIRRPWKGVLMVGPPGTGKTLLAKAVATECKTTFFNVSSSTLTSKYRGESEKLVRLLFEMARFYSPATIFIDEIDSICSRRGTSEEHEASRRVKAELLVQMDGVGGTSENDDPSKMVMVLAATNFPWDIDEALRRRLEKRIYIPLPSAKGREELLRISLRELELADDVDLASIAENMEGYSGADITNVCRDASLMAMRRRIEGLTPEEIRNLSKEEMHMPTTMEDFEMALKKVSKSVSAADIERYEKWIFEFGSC

[5] = target: proteins of U3A human fibrosarcoma cells (4462 proteins detected) (Homo sapiens, UniProt P08174); conditions: protein CD55; U3A cells
[6] = target: proteins of U3A human fibrosarcoma cells (4462 proteins detected) (Homo sapiens, UniProt P20042); conditions: protein EIF2S2; U3A cells
Sequence of proteins of U3A human fibrosarcoma cells (4462 proteins detected) (Homo sapiens, UniProt P20042) (P20042 whole entry): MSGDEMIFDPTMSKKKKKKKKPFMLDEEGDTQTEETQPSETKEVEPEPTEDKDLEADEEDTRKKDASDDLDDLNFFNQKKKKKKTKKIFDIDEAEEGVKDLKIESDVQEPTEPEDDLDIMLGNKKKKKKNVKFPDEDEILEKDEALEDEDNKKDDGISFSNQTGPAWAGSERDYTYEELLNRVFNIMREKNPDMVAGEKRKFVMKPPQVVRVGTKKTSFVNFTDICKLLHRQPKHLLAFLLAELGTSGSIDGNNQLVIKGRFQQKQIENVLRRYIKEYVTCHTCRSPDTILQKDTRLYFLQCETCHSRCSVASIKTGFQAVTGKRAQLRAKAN

[7] = target: proteins of U3A human fibrosarcoma cells (4462 proteins detected) (Homo sapiens, UniProt P20839); conditions: protein IMPDH1, U3A cells
[8] = target: proteins of U3A human fibrosarcoma cells (4462 proteins detected) (Homo sapiens, UniProt P21283); conditions: protein ATP6V1C1; soluble abundance after heat, U3A cells
[9] = target: proteins of U3A human fibrosarcoma cells (4462 proteins detected) (Homo sapiens, UniProt P37837); conditions: protein TALDO1, U3A cells
[10] = target: proteins of U3A human fibrosarcoma cells (4462 proteins detected) (Homo sapiens, UniProt P52294); conditions: protein KPNA1; U3A cells
[11] = target: proteins of U3A human fibrosarcoma cells (4462 proteins detected) (Homo sapiens, UniProt P56277); conditions: protein CMC4; U3A, 10 μM, 2 h
Sequence of proteins of U3A human fibrosarcoma cells (4462 proteins detected) (Homo sapiens, UniProt P56277) (P56277 whole entry): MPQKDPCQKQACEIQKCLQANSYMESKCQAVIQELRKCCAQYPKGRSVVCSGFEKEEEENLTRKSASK

[12] = target: proteins of U3A human fibrosarcoma cells (4462 proteins detected) (Homo sapiens, UniProt P63173); conditions: protein RPL38; U3A cells
[13] = target: proteins of U3A human fibrosarcoma cells (4462 proteins detected) (Homo sapiens, UniProt P78317); conditions: protein RNF4, U3A cells
Sequence of proteins of U3A human fibrosarcoma cells (4462 proteins detected) (Homo sapiens, UniProt P78317) (P78317 whole entry): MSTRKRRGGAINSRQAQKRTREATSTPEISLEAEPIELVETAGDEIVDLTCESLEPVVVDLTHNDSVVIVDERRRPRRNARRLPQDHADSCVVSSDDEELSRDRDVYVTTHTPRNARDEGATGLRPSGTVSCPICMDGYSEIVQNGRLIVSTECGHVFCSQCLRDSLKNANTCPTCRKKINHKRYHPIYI

[14] = target: proteins of U3A human fibrosarcoma cells (4462 proteins detected) (Homo sapiens, UniProt Q03188); conditions: protein CENPC, U3A cells
Sequence of proteins of U3A human fibrosarcoma cells (4462 proteins detected) (Homo sapiens, UniProt Q03188) (Q03188 whole entry): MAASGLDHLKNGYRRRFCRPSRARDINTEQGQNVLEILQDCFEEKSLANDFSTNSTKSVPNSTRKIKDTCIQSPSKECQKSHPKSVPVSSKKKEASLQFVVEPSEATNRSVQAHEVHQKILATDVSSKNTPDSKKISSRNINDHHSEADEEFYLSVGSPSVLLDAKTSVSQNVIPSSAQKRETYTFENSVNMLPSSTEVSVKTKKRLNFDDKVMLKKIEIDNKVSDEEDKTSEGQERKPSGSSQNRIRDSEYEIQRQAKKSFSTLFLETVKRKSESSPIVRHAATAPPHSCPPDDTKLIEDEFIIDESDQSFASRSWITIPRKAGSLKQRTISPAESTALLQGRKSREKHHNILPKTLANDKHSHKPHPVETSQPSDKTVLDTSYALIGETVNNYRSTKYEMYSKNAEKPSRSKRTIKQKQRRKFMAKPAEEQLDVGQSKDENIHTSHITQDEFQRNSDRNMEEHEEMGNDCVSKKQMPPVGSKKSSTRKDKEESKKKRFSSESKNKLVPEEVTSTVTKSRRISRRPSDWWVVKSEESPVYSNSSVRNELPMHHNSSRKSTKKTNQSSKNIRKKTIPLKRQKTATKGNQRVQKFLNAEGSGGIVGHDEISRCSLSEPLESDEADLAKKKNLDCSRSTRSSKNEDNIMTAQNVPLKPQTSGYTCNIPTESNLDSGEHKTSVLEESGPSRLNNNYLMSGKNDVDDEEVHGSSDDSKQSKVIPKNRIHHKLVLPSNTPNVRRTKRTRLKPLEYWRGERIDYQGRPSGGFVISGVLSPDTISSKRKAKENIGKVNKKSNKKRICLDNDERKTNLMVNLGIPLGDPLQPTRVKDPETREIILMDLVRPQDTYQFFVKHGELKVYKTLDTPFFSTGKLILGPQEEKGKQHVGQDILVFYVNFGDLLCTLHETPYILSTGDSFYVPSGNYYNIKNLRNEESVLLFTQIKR

[15] = target: proteins of U3A human fibrosarcoma cells (4462 proteins detected) (Homo sapiens, UniProt Q15814); conditions: protein TBCC; U3A cells
Sequence of proteins of U3A human fibrosarcoma cells (4462 proteins detected) (Homo sapiens, UniProt Q15814) (Q15814 whole entry): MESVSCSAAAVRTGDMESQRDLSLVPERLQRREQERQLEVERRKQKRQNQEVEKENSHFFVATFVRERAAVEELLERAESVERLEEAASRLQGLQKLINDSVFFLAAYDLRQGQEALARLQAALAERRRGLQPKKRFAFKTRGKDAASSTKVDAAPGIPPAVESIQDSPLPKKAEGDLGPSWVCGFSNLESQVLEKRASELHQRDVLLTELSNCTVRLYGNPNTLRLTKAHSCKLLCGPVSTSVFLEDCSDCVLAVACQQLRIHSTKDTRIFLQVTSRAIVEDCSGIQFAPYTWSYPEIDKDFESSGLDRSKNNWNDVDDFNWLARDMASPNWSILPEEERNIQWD

[16] = target: proteins of U3A human fibrosarcoma cells (4462 proteins detected) (Homo sapiens, UniProt Q16576); conditions: protein RBBP7; soluble abundance after heat, U3A cells
[17] = target: proteins of U3A human fibrosarcoma cells (4462 proteins detected) (Homo sapiens, UniProt Q5T4S7); conditions: protein UBR4; soluble abundance after heat, U3A cells
[18] = target: proteins of U3A human fibrosarcoma cells (4462 proteins detected) (Homo sapiens, UniProt Q6YHU6); conditions: protein THADA; soluble abundance after heat, U3A cells
[19] = target: proteins of U3A human fibrosarcoma cells (4462 proteins detected) (Homo sapiens, UniProt Q86TS9); conditions: protein MRPL52; soluble abundance after heat, U3A cells
[20] = target: proteins of U3A human fibrosarcoma cells (4462 proteins detected) (Homo sapiens, UniProt Q8IVD9); conditions: protein NUDCD3; soluble abundance after heat, U3A cells
[21] = target: proteins of U3A human fibrosarcoma cells (4462 proteins detected) (Homo sapiens, UniProt Q8WXD5); conditions: protein GEMIN6, U3A cells
Sequence of proteins of U3A human fibrosarcoma cells (4462 proteins detected) (Homo sapiens, UniProt Q8WXD5) (Q8WXD5 whole entry): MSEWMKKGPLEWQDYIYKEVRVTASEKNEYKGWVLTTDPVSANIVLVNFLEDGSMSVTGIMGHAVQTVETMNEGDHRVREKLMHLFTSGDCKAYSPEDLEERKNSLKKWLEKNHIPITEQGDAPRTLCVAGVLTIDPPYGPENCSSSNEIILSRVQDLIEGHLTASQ

[22] = target: proteins of U3A human fibrosarcoma cells (4462 proteins detected) (Homo sapiens, UniProt Q92888); conditions: protein ARHGEF1; U3A cells
[23] = target: proteins of U3A human fibrosarcoma cells (4462 proteins detected) (Homo sapiens, UniProt Q96PE7); conditions: protein MCEE; U3A, 10 μM, 2 h
Sequence of proteins of U3A human fibrosarcoma cells (4462 proteins detected) (Homo sapiens, UniProt Q96PE7) (Q96PE7 37-176): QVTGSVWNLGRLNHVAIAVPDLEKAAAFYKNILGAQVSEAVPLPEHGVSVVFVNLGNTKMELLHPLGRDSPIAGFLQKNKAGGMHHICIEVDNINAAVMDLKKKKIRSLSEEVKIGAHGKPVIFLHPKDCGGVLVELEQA

[24] = target: proteins of U3A human fibrosarcoma cells (4462 proteins detected) (Homo sapiens, UniProt Q9BT78); conditions: protein COPS4; U3A cells
Sequence of proteins of U3A human fibrosarcoma cells (4462 proteins detected) (Homo sapiens, UniProt Q9BT78) (Q9BT78 whole entry): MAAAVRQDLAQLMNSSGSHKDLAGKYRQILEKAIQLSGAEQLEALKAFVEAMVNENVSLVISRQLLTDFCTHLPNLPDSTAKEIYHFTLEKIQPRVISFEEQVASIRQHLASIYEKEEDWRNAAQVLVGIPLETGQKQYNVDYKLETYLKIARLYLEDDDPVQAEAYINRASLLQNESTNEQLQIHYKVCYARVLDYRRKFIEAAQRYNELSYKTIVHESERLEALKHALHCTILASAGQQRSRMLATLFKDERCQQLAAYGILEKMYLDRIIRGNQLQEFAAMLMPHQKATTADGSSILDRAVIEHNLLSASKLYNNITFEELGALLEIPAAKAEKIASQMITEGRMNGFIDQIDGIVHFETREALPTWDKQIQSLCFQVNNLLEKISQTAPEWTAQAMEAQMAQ

[25] = target: proteins of U3A human fibrosarcoma cells (4462 proteins detected) (Homo sapiens, UniProt Q9H8H0); conditions: protein NOL11; soluble abundance after heat, U3A cells
[26] = target: proteins of U3A human fibrosarcoma cells (4462 proteins detected) (Homo sapiens, UniProt Q9H8M7); conditions: protein FAM188A, U3A cells
[27] = target: proteins of U3A human fibrosarcoma cells (4462 proteins detected) (Homo sapiens, UniProt Q9H944); conditions: protein MED20; U3A cells
Sequence of proteins of U3A human fibrosarcoma cells (4462 proteins detected) (Homo sapiens, UniProt Q9H944) (Q9H944 whole entry): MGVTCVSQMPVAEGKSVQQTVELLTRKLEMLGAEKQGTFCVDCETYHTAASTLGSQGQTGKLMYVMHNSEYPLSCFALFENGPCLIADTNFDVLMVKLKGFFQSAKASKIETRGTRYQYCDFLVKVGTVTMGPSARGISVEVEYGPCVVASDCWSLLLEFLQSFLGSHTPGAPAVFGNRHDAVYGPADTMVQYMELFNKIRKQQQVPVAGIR

[28] = target: proteins of U3A human fibrosarcoma cells (4462 proteins detected) (Homo sapiens, UniProt Q9UL15); conditions: protein BAG5; U3A cells
Sequence of proteins of U3A human fibrosarcoma cells (4462 proteins detected) (Homo sapiens, UniProt Q9UL15) (Q9UL15 whole entry): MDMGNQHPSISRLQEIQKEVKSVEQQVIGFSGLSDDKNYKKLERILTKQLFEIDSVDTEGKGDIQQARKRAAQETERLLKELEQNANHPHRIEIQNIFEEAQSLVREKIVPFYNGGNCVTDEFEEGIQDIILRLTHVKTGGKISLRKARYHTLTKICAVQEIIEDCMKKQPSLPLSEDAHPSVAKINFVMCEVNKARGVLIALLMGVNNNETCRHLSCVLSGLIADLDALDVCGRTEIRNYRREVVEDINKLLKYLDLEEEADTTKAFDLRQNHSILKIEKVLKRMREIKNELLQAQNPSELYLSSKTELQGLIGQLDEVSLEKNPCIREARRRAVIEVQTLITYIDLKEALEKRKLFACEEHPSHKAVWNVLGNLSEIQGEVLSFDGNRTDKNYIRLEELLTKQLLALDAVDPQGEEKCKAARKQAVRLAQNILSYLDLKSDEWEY

[29] = target: proteins of U3A human fibrosarcoma cells (4462 proteins detected) (Homo sapiens, UniProt Q9Y478); conditions: protein PRKAB1; U3A cells
Sequence of proteins of U3A human fibrosarcoma cells (4462 proteins detected) (Homo sapiens, UniProt Q9Y478) (Q9Y478 whole entry): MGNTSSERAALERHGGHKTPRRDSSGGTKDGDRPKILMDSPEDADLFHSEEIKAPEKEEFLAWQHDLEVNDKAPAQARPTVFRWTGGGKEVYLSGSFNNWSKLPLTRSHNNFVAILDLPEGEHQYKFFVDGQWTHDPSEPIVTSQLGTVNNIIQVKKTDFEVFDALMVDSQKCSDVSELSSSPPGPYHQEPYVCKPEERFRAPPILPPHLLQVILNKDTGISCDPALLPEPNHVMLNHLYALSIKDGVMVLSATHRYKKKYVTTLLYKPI

[30] = target: proteins of U3A human fibrosarcoma cells (4462 proteins detected) (Homo sapiens, UniProt Q9Y4X5); conditions: protein ARIH1; U3A cells
Sequence of proteins of U3A human fibrosarcoma cells (4462 proteins detected) (Homo sapiens, UniProt Q9Y4X5) (Q9Y4X5 whole entry): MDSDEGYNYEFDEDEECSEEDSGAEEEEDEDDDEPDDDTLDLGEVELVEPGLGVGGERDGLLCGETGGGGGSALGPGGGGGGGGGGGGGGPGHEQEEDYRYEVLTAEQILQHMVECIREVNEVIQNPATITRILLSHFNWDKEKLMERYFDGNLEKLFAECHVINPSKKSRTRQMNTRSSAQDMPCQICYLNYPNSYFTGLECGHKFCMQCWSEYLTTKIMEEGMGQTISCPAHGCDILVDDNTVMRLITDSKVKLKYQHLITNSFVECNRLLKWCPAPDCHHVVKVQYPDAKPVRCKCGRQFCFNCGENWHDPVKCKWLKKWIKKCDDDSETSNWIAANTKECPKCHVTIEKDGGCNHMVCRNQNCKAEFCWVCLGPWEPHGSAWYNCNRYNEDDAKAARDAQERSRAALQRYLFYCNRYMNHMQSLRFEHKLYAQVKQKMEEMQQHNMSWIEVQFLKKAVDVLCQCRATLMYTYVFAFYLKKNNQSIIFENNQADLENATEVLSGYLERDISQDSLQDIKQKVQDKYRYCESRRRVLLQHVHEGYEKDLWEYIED

Sequence of proteins of U3A human fibrosarcoma cells (4462 proteins detected) (Homo sapiens, UniProt O00422) (O00422 whole entry): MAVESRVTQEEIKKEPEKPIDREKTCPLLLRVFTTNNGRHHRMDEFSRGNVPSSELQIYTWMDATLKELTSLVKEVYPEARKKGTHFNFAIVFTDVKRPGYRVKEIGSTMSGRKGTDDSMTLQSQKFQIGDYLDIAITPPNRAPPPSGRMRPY

CCc1nc(N)nc(N)c1-c1ccc(Cl)cc1 [pyrimethamine]
Log2 (PYR/DMSO) [1]: 0.14
Log2 (PYR/DMSO) [2]: 0.21
Log2 (PYR/DMSO) [3]: 0.16
Log2 (PYR/DMSO) [4]: 0.18
Log2 (PYR/DMSO) [5]: 0.20
Log2 (PYR/DMSO) [6]: 0.17
Log2 (PYR/DMSO) [7]: -0.04
Log2 (PYR/DMSO) [8]: 0.13
Log2 (PYR/DMSO) [9]: -0.04
Log2 (PYR/DMSO) [10]: 0.17
Log2 (PYR/DMSO), CMC4 [11]: 0.24
Log2 (PYR/DMSO) [12]: 0.18
Log2 (PYR/DMSO) [13]: -0.04
Log2 (PYR/DMSO) [14]: -0.04
Log2 (PYR/DMSO) [15]: 0.20
Log2 (PYR/DMSO) [16]: 0.15
Log2 (PYR/DMSO) [17]: 0.14
Log2 (PYR/DMSO) [18]: 0.15
Log2 (PYR/DMSO) [19]: 0.15
Log2 (PYR/DMSO) [20]: 0.15
Log2 (PYR/DMSO) [21]: -0.04
Log2 (PYR/DMSO) [22]: 0.18
Log2 (PYR/DMSO), MCEE [23]: 0.25
Log2 (PYR/DMSO) [24]: 0.20
Log2 (PYR/DMSO) [25]: 0.14
Log2 (PYR/DMSO) [26]: -0.04
Log2 (PYR/DMSO) [27]: 0.18
Log2 (PYR/DMSO) [28]: 0.16
Log2 (PYR/DMSO) [29]: 0.23
Log2 (PYR/DMSO) [30]: 0.16
